The source made the active and inactive calls. The rule behind the calls is not given here.
Columns and labels:
Homo sapiens [1] = species: Homo sapiens; test: Activation of recombinant His-tagged human cytosolic GPX4 U46C mutant expressed in Escherichia coli M15 assessed as increase in oxidized glutathione-mediated oxidation of NADPH to NADP+ at 0.4 to 250 uM using tert-butyl hydroperoxide as substrate preincubated for 5 mins followed by substrate addition measured for 6 mins by glutathione reductase enzyme coupled fluorescence assay relative to control
[2] = biological target: T1, Phospholipid hydroperoxide glutathione peroxidase GPX4 (Homo sapiens) (UniProt P36969); test: Activation of GPX4 in human HT1080 cells assessed as inhibition of erastin-induced ferroptosis at 125 uM preincubated for 30 mins followed by erastin addition measured after 24 hrs by MTS assay; assay type: cell-based
T1 sequence (whole entry): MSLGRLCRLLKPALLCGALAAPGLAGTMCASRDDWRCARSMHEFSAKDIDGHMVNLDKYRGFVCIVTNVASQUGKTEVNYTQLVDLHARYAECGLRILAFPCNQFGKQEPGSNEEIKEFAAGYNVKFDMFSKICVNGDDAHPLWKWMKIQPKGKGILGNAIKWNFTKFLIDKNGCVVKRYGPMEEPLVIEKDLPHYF

[3] = biological target: T1, Phospholipid hydroperoxide glutathione peroxidase GPX4 (Homo sapiens); test: Activation of GPX4 in A23187-stimulated human PMN leukocytes assessed as increase in 5-HETE/LTB4 ratio preincubated for 15 mins followed by A23187 addition and measured after 120 mins by LC-MS analysis
[4] = biological target: Prostaglandin G/H synthase 1 (Homo sapiens) (UniProt P23219); test: Inhibition of COX1 (unknown origin) at 500 uM preincubated for 15 mins followed by arachidonic acid substrate addition in presence of TMPD by spectrophotometric method
[5] = biological target: T2, Polyunsaturated fatty acid 5-lipoxygenase (Homo sapiens) (UniProt P09917); test: Inhibition of human 5-LOX at 500 uM preincubated for 10 mins followed by arachidonic acid substrate addition in presence of H2DCFDA by spectrophotometric method
T2 sequence (whole entry): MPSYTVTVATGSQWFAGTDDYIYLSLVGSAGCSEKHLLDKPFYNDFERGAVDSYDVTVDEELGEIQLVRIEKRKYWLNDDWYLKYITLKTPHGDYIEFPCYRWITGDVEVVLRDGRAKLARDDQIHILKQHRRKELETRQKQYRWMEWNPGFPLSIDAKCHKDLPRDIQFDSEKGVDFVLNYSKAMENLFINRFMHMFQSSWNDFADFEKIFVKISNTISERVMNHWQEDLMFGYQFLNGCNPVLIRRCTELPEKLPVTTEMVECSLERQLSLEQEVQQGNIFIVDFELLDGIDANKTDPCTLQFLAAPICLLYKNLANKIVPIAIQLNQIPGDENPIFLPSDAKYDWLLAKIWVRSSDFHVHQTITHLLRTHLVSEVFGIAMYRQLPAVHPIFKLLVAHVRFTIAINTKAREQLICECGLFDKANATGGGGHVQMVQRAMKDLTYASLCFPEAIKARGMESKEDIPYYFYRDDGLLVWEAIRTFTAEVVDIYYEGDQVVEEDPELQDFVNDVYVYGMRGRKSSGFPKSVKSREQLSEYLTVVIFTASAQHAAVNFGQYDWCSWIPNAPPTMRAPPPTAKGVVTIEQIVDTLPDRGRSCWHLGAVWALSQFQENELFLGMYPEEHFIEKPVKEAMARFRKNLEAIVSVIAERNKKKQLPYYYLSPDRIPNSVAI

[6] = biological target: T3, Leukotriene A-4 hydrolase (Homo sapiens) (UniProt P09960); test: Inhibition of LTA4H (unknown origin) at 500 uM preincubated for 15 mins followed by LTA4 substrate addition and measured after 10 mins by ELISA relative to control
T3 sequence (whole entry): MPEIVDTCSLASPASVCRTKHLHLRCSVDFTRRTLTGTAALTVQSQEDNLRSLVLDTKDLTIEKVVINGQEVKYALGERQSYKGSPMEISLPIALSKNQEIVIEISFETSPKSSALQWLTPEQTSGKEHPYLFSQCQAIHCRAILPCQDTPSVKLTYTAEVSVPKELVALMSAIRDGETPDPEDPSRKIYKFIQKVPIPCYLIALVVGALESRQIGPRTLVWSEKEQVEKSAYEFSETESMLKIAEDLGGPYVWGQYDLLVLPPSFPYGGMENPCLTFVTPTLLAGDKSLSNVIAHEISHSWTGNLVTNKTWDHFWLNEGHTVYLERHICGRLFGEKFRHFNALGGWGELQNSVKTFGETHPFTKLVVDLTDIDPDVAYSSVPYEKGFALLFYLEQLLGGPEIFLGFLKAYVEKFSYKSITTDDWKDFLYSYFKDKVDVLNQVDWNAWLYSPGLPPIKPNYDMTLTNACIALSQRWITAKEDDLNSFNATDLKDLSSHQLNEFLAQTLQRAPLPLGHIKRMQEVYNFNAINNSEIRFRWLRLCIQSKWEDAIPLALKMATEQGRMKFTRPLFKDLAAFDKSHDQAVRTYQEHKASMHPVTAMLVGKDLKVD

Homo sapiens [7] = species: Homo sapiens; test: (§1) Activation of recombinant human GPX4 D21A/U46C double mutant expressed in Escherichia coli M15 assessed as increase in oxidized glutathione-mediated oxidation of NADPH to NADP+ using tert-butyl hydroperoxide as substrate preincubated for 5 mins followed by substrate addition measured for 6 mins by glutathione reductase enzyme coupled fluorescence assay relative to GPX4 U46C mutant control
Homo sapiens [8] = species: Homo sapiens; test: as §1, with “D21A/D23A/U46C” for “D21A/U46C double”
[9] = Zinc chelating activity in presence of ZnSO4 after 10 mins by crystal violet staining based assay
[10] = Iron chelating activity assessed as compound-Fe2+ complex formation after 10 mins by Prussian blue assay
[11] = biological target: Phospholipid hydroperoxide glutathione peroxidase GPX4 (Mus musculus) (UniProt O70325); test: Activation of GPX4 in MEF assessed as increase in […] protection against CHOOH-induced cell death at 200 uM; assay type: cell-based
[12] = Antioxidant activity assessed as DPPH radical scavenging activity at 500 uM; assay type: functional

Chain of Prostaglandin G/H synthase 1 (Homo sapiens) (P23219 whole entry): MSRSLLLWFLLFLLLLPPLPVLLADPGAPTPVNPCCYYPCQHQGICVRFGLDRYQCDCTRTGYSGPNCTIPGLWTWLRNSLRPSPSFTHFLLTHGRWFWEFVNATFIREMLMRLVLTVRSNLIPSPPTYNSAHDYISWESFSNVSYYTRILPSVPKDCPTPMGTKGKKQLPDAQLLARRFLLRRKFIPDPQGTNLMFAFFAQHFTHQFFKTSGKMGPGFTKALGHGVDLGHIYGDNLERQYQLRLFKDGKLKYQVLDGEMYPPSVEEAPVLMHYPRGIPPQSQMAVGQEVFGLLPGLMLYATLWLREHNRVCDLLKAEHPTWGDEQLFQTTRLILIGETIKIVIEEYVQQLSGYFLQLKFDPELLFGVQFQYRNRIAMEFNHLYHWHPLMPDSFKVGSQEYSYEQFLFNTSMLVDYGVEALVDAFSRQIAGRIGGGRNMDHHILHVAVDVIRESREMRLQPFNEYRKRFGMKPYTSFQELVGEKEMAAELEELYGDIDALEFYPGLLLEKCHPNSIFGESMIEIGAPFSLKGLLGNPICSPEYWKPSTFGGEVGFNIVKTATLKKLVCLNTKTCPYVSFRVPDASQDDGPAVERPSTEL
Chain of Phospholipid hydroperoxide glutathione peroxidase GPX4 (Mus musculus) (O70325 whole entry): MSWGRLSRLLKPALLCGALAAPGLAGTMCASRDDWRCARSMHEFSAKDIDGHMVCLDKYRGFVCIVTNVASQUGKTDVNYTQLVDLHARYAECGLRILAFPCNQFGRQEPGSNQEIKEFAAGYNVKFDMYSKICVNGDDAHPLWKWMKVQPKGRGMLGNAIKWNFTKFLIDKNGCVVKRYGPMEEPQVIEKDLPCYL

Emax (Homo sapiens [1]): 263% | inhibition [2]: Active | Activity [3]: Dose-dependent effect | inhibition [4]: inactive | inhibition [5]: inactive | inhibition [6]: 17% | EC150 (Homo sapiens [7]): 618 µM | EC150 (Homo sapiens [8]): > 1000 µM | Activity [9]: inactive | Activity [10]: inactive
Structure (SMILES): NS(=O)(=O)c1ccc(NC(S)=NCc2ccc(Cl)cc2)cc1
Activity [11]: Active | Activity [12]: inactive

Source: ChEMBL document CHEMBL4308834, “Novel Allosteric Activators for Ferroptosis Regulator Glutathione Peroxidase 4” (J Med Chem, 2018)
